Results reported in patent USRE41920E1, “Isobutylgaba and its derivatives for the treatment of pain” (Warner-Lambert Company LLC, priority 1997, dated 2010).

Columns and labels:
[1] = test system: formalin-induced hind paw licking and biting; test: Rat paw formalin test; assay type: in vivo; conditions: for effect on the early phase of the formalin response / minimum effective dose (MED), block of licking/biting behavior during the late phase of the formalin response: s.c. 1 hour before formalin; for effect on the early phase of the formalin response: early phase (0-10 minutes), any of the doses tested; for minimum effective dose (MED), block of licking/biting behavior during the late phase of the formalin response: late phase (10-45 minutes)
Experimental: Test compounds were administered s.c. 1 hour before an intraplantar injection of 50 μL formalin. The time spent licking/biting the injected paw during the early and late phases was scored.
Male Sprague-Dawley rats (70-90 g) were habituated to perspex observation chambers (24 cm×24 cm×24 cm) for at least 15 minutes prior to testing. Formalin-induced hind paw licking and biting was initiated by a 50 μL subcutaneous injection of a 5% formalin solution (5% formaldehyde in isotonic saline) into the plantar surface of the left hind paw. Immediately following the formalin injection, licking/biting of the injected hind paw was scored in 5 minute bins for 60 minutes. The results are expressed as mean combined licking/biting time for the early phase (0-10 minutes) and late phase (10-45 minutes).

[2] = test system: carrageenin-induced thermal hyperalgesia; test: Carrageenin-induced thermal hyperalgesia (Hargreaves model); assay type: in vivo, rat; conditions: s.c. 2.5 hours after carrageenin; PWL at 3 and 4 hours
Experimental: Nociceptive thermal thresholds were measured in the rat using the Hargreaves apparatus. Baseline (BL) measurements were taken before animal s were administered with 100 μL of 2% carrageenin by intraplantar injection. Results are shown as mean (±SEM) of 8 animals per group.
(§1) On the test Day, 2 to 3 baseline measurements were taken before rats (male Sprague-Dawley 70-90 g) were administered with 100 μL of 2% carrageenin by intraplantar injection into the right hind paw. Animals were dosed with the test drug after development of peak hyperalgesia. Separate groups of animals were used for the mechanical and thermal hyperalgesia studies.
Baseline paw withdrawal latencies (PWL) were obtained for each rat using the Hargreaves model. Carrageenin was injected as described above. Animals were then tested for thermal hyperalgesia at 2 hours postcarrageenin administration. Gabapentin (10-100 mg/kg) or CI-1008 (1-30 mg/kg) was administered s.c. 2.5 hours after carrageenin, and PWL were reevaluated at 3 and 4 hours postcarrageenin administration. Carrageenin induced a significant reduction in paw withdrawal latency at 2, 3, and 4 hours following injection, indicating the induction of thermal hyperalgesia (FIG. 3). Gabapentin and CI-1008 dose-dependently antagonized the hyperalgesia with a MED of 30 and 3 mg/kg (FIG. 3).

[3] = test system: thermal hyperalgesia after incision of the rat plantaris muscle; test: Thermal hyperalgesia in the rat postoperative pain model (rat plantar test); assay type: in vivo; conditions: for MED, block of development of thermal hyperalgesia: single dose s.c. before surgery (1 hour; morphine 0.5 hour)
Experimental: Gabapentin or S-(+)-3 isobutylgaba was administered 1 hour before surgery. Morphine was administered 0.5 hour before surgery. Thermal paw withdrawal latencies (PWL) were determined for both ipsilateral and contralateral paws using the rat plantar test. For clarity contralateral paw data for drug-treated animals is not shown. Baseline (BL) measurements were taken before surgery and PWL were reassessed 2, 24, 48, and 72 hours postsurgery. […] In the figure, —●— is vehicle contralateral, —◯— is vehicle ispsilateral, —Δ— is 1 mg/kg morphine, —▭— is 3, and —⋄— is 6 for morphine in 4a. In 4b, —Δ— is 3, —▭— is 10, and —⋄— is 30 for gabapentin. In 4c, —Δ— is 3 mg/kg, —▭— is 10, and —⋄— is 30 for S-(+)-isobutylgaba.
(§2) S-(+)-3-Isobutylgaba (S-(+)-IBG) was administered 1 hour after surgery. Thermal paw withdrawal latencies, determined using the rat plantar test, and paw withdrawal thresholds to von Frey hair filaments, were determined in separate groups of animals for both ipsilateral and contralateral paws. For clarity only the ipsilateral paw data is shown. Baseline (BL) measurements were taken before surgery and withdrawal thresholds were reassessed up to 6 hours postsurgery.
(§3) Male Sprague-Dawley rats (250-300 g), obtained from Bantin and Kingmen, (Hull, U. K.) were used in all experiments. Before surgery, animals were housed in groups of 6 under a 12-hour light/dark cycle (lights on at 07 hour 00 minute) with food and water ad libitum. Postoperatively, animals were housed in pairs on “Aqua-sorb” bedding consisting of air laid cellulose (Beta Medical and Scientific, Sale, U.K.) under the same conditions. All experiments were carried out by an observer blind to drug treatments.
(§4) Animals were anaesthetized with 2% isofluorane and 1.4 […] mixture which was maintained during surgery via a nose cone. The plantar surface of the right hind paw was prepared with 50% ethanol, and a 1-cm longitudinal incision was made through skin and fascia, starting 0.5 cm from the edge of the heel and extending towards the toes. The plantaris muscle was elevated using forceps and incised longitudinally. The wound was closed using two simple sutures of braided silk with a FST-02 needle. The wound site was covered with Terramycin spray and Auromycin powder. […] The sutures were removed after 48 hours.
Thermal hyperalgesia was assessed using the rat plantar test (Ugo Basile, Italy) following a modified method of Hargreaves, et al., 1988. Rats were habituated to the apparatus which consisted of three individual perspex boxes on an elevated glass table. A mobile radiant heat source was located under the table and focused onto the hind paw and paw withdrawal latencies (PWL) were recorded. There was an automatic cut off point of 22.5 seconds to prevent tissue damage. PWLs were taken 2 to 3 times for both hind paws of each animal, the mean of which represented baselines for right and left hind paws. The apparatus was calibrated to give a PWL of approximately 10 seconds. PWL(s) were reassessed following the same protocol as above 2, 24, 48, and 72 hours postoperatively.
(§5) Data obtained for thermal hyperalgesia was subjected to a one-way (analysis of variance) ANOVA followed by a Dunnett's t-test. Tactile allodynia results obtained with the von Frey hairs were subjected to an individual Mann Whitney t-test.

[4] = test system: tactile allodynia after incision of the rat plantaris muscle; test: Tactile allodynia in the rat postoperative pain model (von Frey hairs); assay type: in vivo; conditions: for effect on tactile allodynia scores in the contralateral paw: up to the highest dose tested; for MED, prevention of development of tactile allodynia: s.c. 1 hour before surgery
Experimental: Gabapentin or S-(+)-3-isobutylgaba was administered 1 hour before surgery. Morphine was administered 0.5 hour before surgery. Paw withdrawal thresholds to von Frey hair filaments were determined for both ipsilateral and contralateral paws. For clarity, contralateral paw data for drug-treated animals is not shown. Baseline (BL) measurements were taken before surgery, and withdrawal thresholds were reassessed 3, 25, 49, and 73 hours postsurgery. […] In FIG. 5, —●— is vehicle contralateral, —◯— is vehicle ispsilateral. For morphine (5a), —Δ— is 1 mg/kg, —▭— is 3, and —⋄— is 16.
as §2, §3, §4
Tactile allodynia was measured using Semmes-Weinstein von Frey hairs (Stoelting, Ill., U.S.A.). Animals were placed into wire-mesh-bottom cages allowing access to the underside of their paws. The animals were habituated to this environment prior to the start of the experiment. Tactile allodynia was tested by touching the plantar surface of the animals hind paw with von Frey hairs in ascending order of force (0.7, 1.2, 1.5, 2, 3.6, 5.5, 8.5, 11.8, 15. 1, and 29 g) until a paw withdrawal response was elicited. Each von Frey hair was applied to the paw for 6 seconds, or until a response occurred. Once a withdrawal response was established, the paw was retested, starting with the next descending von Frey hair until no response occurred. The highest force of 29 g lifted the paw as well as eliciting a response, thus represented the cut-off point. Each animal had both hind paws tested in this manner. The lowest amount of force required to elicit a response was recorded as withdrawal threshold in grams. When compounds were administered before surgery, the same animals were used to study drug effects on tactile, allodynia, and thermal hyperalgasia, with each animal being tested for tactile allodynia 1 hour after thermal hyperalgesia. Separate groups of animals were used for examination of tactile allodynia and thermal hyperalgesia when S-(+)-3-isobutylgaba was administered after surgery.
as §5

[5] = test system: carrageenin-induced mechanical hyperalgesia; test: Carrageenin-induced mechanical hyperalgesia (rat paw pressure test); assay type: in vivo; conditions: for MED, antagonism of carrageenin-induced mechanical hyperalgesia: s.c. 3.5 hours after carrageenin
Experimental: Nociceptive pressure thresholds were measured in the rat using the paw pressure test. Baseline (BL) measurements were taken before animals were administered with 100 μL of 2% carrageenin by intraplantar injection. Results are shown as mean (±SEM) of 8 animals per group.
as §1
Nociceptive pressure thresholds were measured in the rat paw pressure test using an analgesimeter (Ugo Basile). A cut-off point of 250 g was used to prevent any damage to the paw. The intraplantar injection of carrageenin produced a reduction in the nociceptive pressure threshold between 3 and 5 hours after injection, indicating induction of hyperalgesia. […] Gabapentin (3-300 mg/kg, s.c.) and CI-1008 (1-100 mg/kg, s.c.) dose-dependently antagonized the hyperalgesia, with respective MED of 10 and 3 mg/kg (FIG. 2).

[6] = 30 mg/kg s.c. 1 hour before surgery
[7] = 30 mg/kg, 1 hour before surgery

SMILES: CC(C)CC(CN)CC(=O)O (centres unmarked) [3-aminomethyl-5-methyl-hexanoic acid, 3-aminomethyl-5-methylhexanoic acid]
- blockade of the late phase of the formalin response ([1]; 100 mg/kg s.c. 1 hour before formalin): only a modest blockade

SMILES: CC(C)C[C@H](CN)CC(=O)O [CI-1008, (S)-3-(aminomethyl)-5-methylhexanoic acid]
- MED, antagonism of carrageenin-induced thermal hyperalgesia [2]: 3 mg/kg
- duration of effect on thermal hyperalgesia [3, 6]: up to 3 days
- effect on PWL of the contralateral paw in the thermal hyperalgesia test ([3]; up to the highest dose tested): did not affect PWL
- MED, block of development of thermal hyperalgesia [3]: 3 mg/kg
- block of induction and maintenance of hyperalgesia ([3]; summary statement): completely blocked
- duration of blockade of the allodynia response [4, 7]: 3 days
- effect on tactile allodynia scores in the contralateral paw [4]: did not affect
- MED, prevention of development of tactile allodynia [4]: 10 mg/kg
- block of induction and maintenance of allodynia ([4]; summary statement): completely blocked
- MED, antagonism of carrageenin-induced mechanical hyperalgesia [5]: 3 mg/kg
- effect on the early phase of the formalin response [1]: neither of the compounds affected the early phase
- minimum effective dose (MED), block of licking/biting behavior during the late phase of the formalin response [1]: 10 mg/kg

SMILES: NCC1(CC(=O)O)CCCCC1 [Gabapentin, 1-(aminomethyl)-cyclohexaneacetic acid]
- MED, antagonism of carrageenin-induced thermal hyperalgesia [2]: 30 mg/kg
- duration of prevention of the hyperalgesic response [3, 6]: 24 h
- effect on PWL of the contralateral paw in the thermal hyperalgesia test ([3]; up to the highest dose tested): did not affect PWL
- MED, block of development of thermal hyperalgesia [3]: 30 mg/kg
- duration of effect on tactile allodynia ([4]; 10 mg/kg, 1 hour before surgery): 25 h
- duration of effect on tactile allodynia [4, 7]: 49 h
- effect on tactile allodynia scores in the contralateral paw [4]: did not affect
- MED, prevention of development of tactile allodynia [4]: 10 mg/kg
- MED, antagonism of carrageenin-induced mechanical hyperalgesia [5]: 10 mg/kg
- effect on the early phase of the formalin response [1]: neither of the compounds affected the early phase
- minimum effective dose (MED), block of licking/biting behavior during the late phase of the formalin response [1]: 30 mg/kg

SMILES: CN1CC[C@]23c4c5ccc(O)c4O[C@H]2[C@@H](O)C=C[C@H]3[C@H]1C5 [Morphine]
- effect on PWL of the contralateral paw in the thermal hyperalgesia test ([3]; 6 mg, s.c., data not shown): increased PWL of the contralateral paw
- duration of antagonism of development of thermal hyperalgesia ([3]; 1-6 mg/kg s.c. 0.5 hour before surgery): 24 h
- MED, block of development of thermal hyperalgesia [3]: 1 mg/kg
- duration of prevention of development of tactile allodynia ([4]; highest dose of 6 mg/kg, 0.5 hour before surgery): 3 h
- effect on carrageenin-induced mechanical hyperalgesia ([5]; 3 mg/kg, s.c.): complete blockade of hyperalgesia
